Results published in patent US20240270821A1, “GIP/GLP1/GCG TRI-RECEPTOR AGONISTS AND USES THEREOF” (priority 2023, published 2024).
Changes are numbered by the printed parent chain. Starred links: 1 amine or outer side, 2 acyl side, 3 side chain; linkers in the order of their positions; H or OH if unused. Non-standard residues stand in square brackets, D forms with d. Groups on a side chain read outwards from the residue. No end group written: not given here. *: point of attachment. C20 diacid = O=C(O)CCCCCCCCCCCCCCCCCCC(=O)*; C18 diacid = O=C(O)CCCCCCCCCCCCCCCCC(=O)*; αMePhe(2-F) = C[C@](N)(Cc1ccccc1F)C(=O)O; γGlu = O=C(O)[C@H](CCC(=O)[*:2])N[*:1]; NMeY = CN[C@@H](Cc1ccc(O)cc1)C(=O)O; αMe4Pal = C[C@](N)(Cc1ccncc1)C(=O)O; αMeF = C[C@](N)(Cc1ccccc1)C(=O)O; 4Pal = N[C@@H](Cc1ccncc1)C(=O)O; αMeL = CC(C)C[C@](C)(N)C(=O)O; Orn = NCCC[C@H](N)C(=O)O; Dab = NCC[C@H](N)C(=O)O; AEEA = NCCOCCOCC(=O)O; Aib = CC(C)(N)C(=O)O

B1: Example 290 (peptide)
chain: HXQGTXTSDYSILLDKKAAXAFIEYLIETGPSSGEPPPSEG
modifications: not fully specified; synthetic construct; SITE 2: note = 2-Aminoisobutyric Acid; SITE 6: note = alpha-methyl-2-fluoro-L-phenylalanine; SITE 17: note = Lysine is chemically modified through conjugation of the epsilon-amino group of the Lysine side chain with (2-[2-(2-Amino-ethoxy)-ethoxy]-acetyl)-(gamma-Glu)-CO-(CH2) 18-
B2: Example 298 (peptide)
chain: B1 chain with T29A
modifications: not fully specified; synthetic construct; SITE 2: note = 2-Aminoisobutyric Acid; SITE 6: note = alpha-methyl-2-fluoro-L-phenylalanine; SITE 17: note = Lysine is chemically modified through conjugation of the epsilon-amino group of the Lysine side chain with (2-[2-(2-Amino-ethoxy)-ethoxy]-acetyl)-(gamma-Glu)-CO-(CH2) 18-
B3: Example 294 (peptide)
chain: B1 chain with H1Y, X6F, L13X, I27L, T29G
modifications: synthetic construct; SITE 2: note = 2-Aminoisobutyric Acid; SITE 13: note = alpha-methyl-leucine; SITE 17: note = Lysine is chemically modified through conjugation of the epsilon-amino group of the Lysine side chain with (2-[2-(2-Amino-ethoxy)-ethoxy]-acetyl)2-(gamma-Glu)-CO-(CH2 )18-CO2H; SITE 20:
B4: Example 293 (peptide)
chain: Y[Aib]QGT[αMePhe(2-F)]TSDYSILLDKIAQK([AEEA-γGlu-C20 diacid])AFIEYLLEGGPSSGEPPPSEG-NH2
B5: Example 297 (peptide)
chain: [NMeY][Aib]QGT[αMeF]TSDYSSLLDKIAAK([AEEA-AEEA-γGlu-C20 diacid])AFIEYLLEGGPSSGEPPPSEG-NH2

Key:
[1] = test system: Intestinal organoid from Göttingen minipig jejunum tissue, 2D monolayer; assay: Cell based in vitro permeability (Papp) assay; type: in vitro ADME
Summary of the method: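 Papp calculated from LC/MS peptide levels in apical and basal compartments. Basal sampling at 20 min with C10 present, across monolayers grown from dissociated minipig jejunal organoids in transwells.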

hGLP-1R [2] = molecular target: T1, hGLP-1R (Homo sapiens, UniProt P43220); assay: Functional cAMP activity in the presence of 1% HSA; type: cell-based; details: read-out: cAMP Rel EC50, hGLP-1R
T1 sequence (P43220 24-463): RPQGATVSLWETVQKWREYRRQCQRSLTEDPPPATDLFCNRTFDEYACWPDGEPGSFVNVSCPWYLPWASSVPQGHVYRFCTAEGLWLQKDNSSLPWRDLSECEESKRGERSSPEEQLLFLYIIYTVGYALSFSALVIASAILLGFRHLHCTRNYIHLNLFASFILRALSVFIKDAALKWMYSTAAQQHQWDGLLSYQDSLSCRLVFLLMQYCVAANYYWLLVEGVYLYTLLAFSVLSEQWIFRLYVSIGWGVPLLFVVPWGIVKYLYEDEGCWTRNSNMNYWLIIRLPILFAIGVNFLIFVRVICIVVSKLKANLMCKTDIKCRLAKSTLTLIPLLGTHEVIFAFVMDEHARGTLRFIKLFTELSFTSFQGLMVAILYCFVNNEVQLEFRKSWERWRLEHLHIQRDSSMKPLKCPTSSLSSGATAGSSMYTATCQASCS

hGIPR [3] = molecular target: T2, hGIPR (Homo sapiens, UniProt P48546); assay: Functional cAMP activation in the presence of 0.1% casein (no HSA); type: cell-based; details: in the presence of 0.1% casein (no HSA); geometric mean; read-out: Relative cAMP EC50, hGIPR;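 further: intracellular cAMP rise after 30 min at 37 °C read by HTRF against a standard curve, scaled between buffer alone (0%) and top control ligand concentration (100%), four-parameter fit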
T2 sequence (P48546 22-466): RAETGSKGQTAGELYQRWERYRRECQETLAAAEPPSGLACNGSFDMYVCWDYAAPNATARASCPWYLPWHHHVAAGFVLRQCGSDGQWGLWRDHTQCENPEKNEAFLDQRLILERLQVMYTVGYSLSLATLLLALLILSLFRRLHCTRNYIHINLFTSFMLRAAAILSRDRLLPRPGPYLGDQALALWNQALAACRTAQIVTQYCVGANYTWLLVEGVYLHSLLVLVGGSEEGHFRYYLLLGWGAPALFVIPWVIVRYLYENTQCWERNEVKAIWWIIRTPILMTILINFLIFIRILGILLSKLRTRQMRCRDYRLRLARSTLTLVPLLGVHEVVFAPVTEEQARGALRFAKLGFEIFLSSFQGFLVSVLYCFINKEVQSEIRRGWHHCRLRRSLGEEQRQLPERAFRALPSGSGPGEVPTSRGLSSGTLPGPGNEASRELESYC

human GLP1-R = human GLP1-R (Homo sapiens, UniProt P43220); assay: GLP1-R internalization assay in HEK293 cells; type: cell-based; details: for EC50: HEK293 cells expressing SNAP-GLP-1R, read-out: GLP1R Internalization EC50; for Internalization % TOP: normalized to maximum concentration of GLP-1 (100%)
Sequence of human GLP1-R (P43220 24-463): as the sequence (P43220 24-463) above

human GcgR = human GcgR (Homo sapiens, UniProt P47871); assay: Functional cAMP activity in the presence of 1% HSA; type: cell-based; details: read-out: cAMP Rel EC50, hGcgR
Sequence of human GcgR (P47871 26-477): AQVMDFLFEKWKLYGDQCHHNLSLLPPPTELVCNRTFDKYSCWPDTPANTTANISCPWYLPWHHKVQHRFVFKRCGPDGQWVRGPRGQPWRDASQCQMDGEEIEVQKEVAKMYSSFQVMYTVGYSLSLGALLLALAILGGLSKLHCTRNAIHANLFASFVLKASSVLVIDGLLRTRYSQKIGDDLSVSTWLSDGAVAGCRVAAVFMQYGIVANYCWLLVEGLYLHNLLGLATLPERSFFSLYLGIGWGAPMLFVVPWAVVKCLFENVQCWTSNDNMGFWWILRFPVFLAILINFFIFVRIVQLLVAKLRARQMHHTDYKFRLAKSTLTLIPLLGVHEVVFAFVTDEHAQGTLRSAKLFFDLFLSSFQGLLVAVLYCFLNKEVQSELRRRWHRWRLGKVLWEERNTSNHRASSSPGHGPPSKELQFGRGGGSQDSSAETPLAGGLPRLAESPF

hGIPR [4] = molecular target: T2, hGIPR; assay: Functional cAMP activity in the presence of 1% HSA; type: cell-based; details: read-out: cAMP Rel EC50, hGIPR
hGLP-1R [5] = molecular target: T1, hGLP-1R; assay: Functional cAMP activation in the presence of 0.1% casein (no HSA); type: cell-based; details: in the presence of 0.1% casein (no HSA); geometric mean; read-out: Relative cAMP EC50, hGLP-1R;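 on Relative cAMP EC50, hGLP-1R: intracellular cAMP rise after 30 min at 37 °C read by HTRF, normalized between buffer only (0%) and maximal control ligand (100%), four-parameter variable-slope fit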;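 on Relative cAMP EC50, hGcgR: intracellular cAMP rise after 30 min at 37 °C, read by HTRF against a cAMP standard curve, scaled from buffer only (0%) to maximal control ligand response (100%)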
hGcgR = hGcgR (Homo sapiens, UniProt P47871); assay: as above; type: cell-based; details: in the presence of 0.1% casein (no HSA); geometric mean; read-out: Relative cAMP EC50, hGcgR;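 further: intracellular cAMP rise after 30 min at 37 °C, read by HTRF against a cAMP standard curve, scaled from buffer only (0%) to maximal control ligand response (100%)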
Sequence of hGcgR (P47871 26-477): as above

[6] = molecular target: Pro-Link-tagged Human GLP-1R (human) (UniProt P43220); assay: cell-based or functional assay
Sequence of Pro-Link-tagged Human GLP-1R (human) (P43220 24-463): as the sequence (P43220 24-463) above

hGLP-1R [7] = molecular target: T1, hGLP-1R; assay: cell-based or functional assay
[8] = molecular target: T3, human GIP receptor (human) (UniProt P48546); assay: cell-based or functional assay
T3 sequence (looked up): T2 sequence (P48546 22-466)

[9] = molecular target: human glucagon receptor (human) (UniProt P47871); assay: cell-based or functional assay
Sequence of human glucagon receptor (human) (P47871 26-477): as the sequence (P47871 26-477) above

Molecule | Relative Papp (Compared to internal standard) [1] | EC50 (hGLP-1R [2]) [nM] | EC50 (hGIPR [3]) [nM] | EC50 (human GLP1-R) [nM] | Internalization % TOP (human GLP1-R) [%] | EC50 (human GcgR) [nM] | EC50 (hGIPR [4]) [nM] | EC50 (hGLP-1R [5]) [nM] | EC50 (hGcgR) [nM] | % Stimulation Max [6] [%] | Relative cAMP EC50 (hGLP-1R [7]) [nM] | cAMP Rel EC50 (in the presence of 1% HSA) (hGLP-1R [7]) [nM] | Relative cAMP EC50 [8] [nM] | cAMP Rel EC50 (in the presence of 1% HSA) [8] [nM] | hGLP1R β-arrestin Rel EC50 [6] [µM] | Relative cAMP EC50 [9] [nM] | cAMP Rel EC50 (in the presence of 1% HSA) [9] [nM] | cAMP Rel EC50 (1% HSA) (hGLP-1R [7]) [nM] | cAMP Rel EC50 (1% HSA) [8] [nM] | cAMP Rel EC50 (1% HSA) [9] [nM]
H-Y[Aib]QGTFTSD[4Pal]SQ[αMeL]LDKK([AEEA-γGlu-C18 diacid])AQ[αMe4Pal]AFIEYLIE[Aib]GESSGAPPPSGS-NH2 [Example 226] | 0.36 | 354 | 0.127 | 29.1 | 59.3 | 763 | 32.2 | 1.97 | 3.08 | – | – | – | – | – | – | – | – | – | – | –
H-Y[Aib]QGTFTSD[4Pal]SR[αMeL]LDKK([AEEA-γGlu-C18 diacid])AQ[Aib]AFIEYLIE[Aib]GESSGAPPPSGS-NH2 [Example 187] | 0.48 | 178 | 0.111 | 17.2 | 57 | 2970 | 15.6 | 1.11 | 14.8 | – | – | – | – | – | – | – | – | – | – | –
H-Y[Aib]QGTFTSD[4Pal]SR[αMeL]LDKK([AEEA-γGlu-C18 diacid])AQ[αMe4Pal]AFIEYLIE[Aib]GESSGAPPPSGE-NH2 [Example 225] | 0.48 | 438 | 0.213 | 26 | 56.7 | 561 | 40.2 | 2.44 | 2.36 | – | – | – | – | – | – | – | – | – | – | –
H-Y[Aib]QGTFTSD[4Pal]SR[αMeL]LDKK([AEEA-γGlu-C18 diacid])AQ[αMe4Pal]AFIEYLIE[Aib]GESSGAPPPSGS-NH2 [Example 224] | 0.35 | 333 | 0.114 | 32.2 | 61.9 | 452 | 21.5 | 1.89 | 1.91 | – | – | – | – | – | – | – | – | – | – | –
H-Y[Aib]QGTFTSD[4Pal]S[Dab][αMeL]LDKK([AEEA-γGlu-C18 diacid])AQ[Aib]AFIEYLIE[Aib]GESSGAPPPSGS-NH2 [Example 188] | 0.46 | 436 | 0.193 | 44.7 | 40.2 | 2920 | 43.8 | 3.43 | 10.8 | – | – | – | – | – | – | – | – | – | – | –
H-Y[Aib]QGTFTSD[4Pal]S[Orn][αMeL]LDKK([AEEA-γGlu-C18 diacid])AQ[Aib]AFIEYLLAGGPSSGEPPPSGS-NH2 [Example 154] | 0.12 | 569 | 0.227 | 47.7 | 65.9 | 1040 | 29.7 | 4.94 | 8.72 | – | – | – | – | – | – | – | – | – | – | –
H-Y[Aib]QGTFTSD[4Pal]S[Orn][αMeL]LDKK([AEEA-γGlu-C18 diacid])AQ[αMe4Pal]AFIEYLIE[Aib]GESSGAPPPSGS-NH2 [Example 223] | 0.29 | 627 | 0.215 | 45.8 | 59.3 | 373 | 37.2 | 2.83 | 1.57 | – | – | – | – | – | – | – | – | – | – | –
Tirzepatide (peptide) | – | – | – | – | – | – | – | – | – | 10.5 | – | – | – | – | – | – | – | – | – | –
Y[Aib]QGTFTSDFS[Orn][αMeL]LDKK([AEEA-AEEA-γGlu-C18 diacid])AQ[Aib]AFIEYLLE[dA]GPSSGEPPPSGS-NH2 [Example 155] | 0.07 | 503 | 0.177 | 85.1 | 54.5 | 1310 | 18.9 | 2.98 | 5.68 | – | – | – | – | – | – | – | – | – | – | –
Y[Aib]QGTFTSDFS[Orn][αMeL]LDKK([AEEA-AEEA-γGlu-C18 diacid])AQ[Aib]AFIEYLLE[dA]GPSSGHPPPSGH-NH2 [Example 255] | 0.23 | 272 | 0.107 | 47.1 | 51.8 | 883 | 21.9 | 1.9 | 5.48 | – | – | – | – | – | – | – | – | – | – | –
B1 | – | – | – | – | – | – | – | – | – | 83.5 | 0.34 | 90 | 0.43 | 53.4 | 0.00394 | 2.68 | 878 | – | – | –
B2 | – | – | – | – | – | – | – | – | – | 86.4 | 0.277 | – | 0.138 | – | 0.00329 | 1.04 | – | 70.9 | 41.3 | 1570
B3 | – | – | – | – | – | – | – | – | – | 35.3 | 2.16 | 554 | 0.318 | 54.1 | 0.0277 | 1.07 | 518 | – | – | –
B4 | – | – | – | – | – | – | – | – | – | 54.6 | 0.994 | 295 | 0.0587 | 9.63 | 0.0119 | 4.01 | 1740 | – | – | –
B5 | – | – | – | – | – | – | – | – | – | 33.5 | 2.96 | – | 0.626 | – | 0.0602 | 3.26 | – | 1130 | 325 | 2320
